{
  "source": "patent US20240091210A1",
  "about": "“USE OF 5-[[4-[2-[5-ACETYLPYRIDIN-2-YL]ETHOXY]BENZYL]-1,3-THIAZOLIDINE-2,4-DIONE AND ITS SALTS” (Minoryx Therapeutics S.L., priority 2018, published 2024)",
  "key": {"[1]": {"tested_on": "wild type MDA MB231 cells", "experiment": "Seahorse oxygen consumption rate (OCR), wild type MDA MB231 cells", "assay_type": "cell-based", "experimental": "(§1) To determine whether MIN-102 has any effect on pyruvate-mediated mitochondrial respiration, the extracellular flux analyzer Seahorse was used as described in Compan et al.. Seahorse experiments were performed in the following cell lines: HeLa (Cervix cancer cells), A549 (lung cancer cells), wild type MDA MB 231, and MDA MB 231 in which MPC2 has been deleted, leading to inactivation of the MPC (MDA MB231 KO). MDA MB231 cells are epithelial breast cancer cells. Cells were incubated with increasing concentrations of the compounds for one hour at 37° C. before oxygen consumption rate (OCR) measurements. The Seahorse analyzer allowed to measure basal and maximal respiration measured upon depolarization with 1 μM CCCP. […] The KO cells have been deleted of the MPC2 gene and therefore they display no MPC activity. The top panel show a representative experiment of either wild type (WT) or KO cell lines. […] OCR values are expressed as ratios of OCR in the presence of different concentrations of the tested compound over the OCR in PBS alone."}, "[2]": {"experiment": "Multiple ascending dose (MAD) study in human subjects", "assay_type": "in vivo", "details": "for Cmax: in vivo, steady state day 8, human, read-out: mean Cmax ss"}, "adiponectin": {"tested_on": "adiponectin", "experiment": "Plasma adiponectin levels in rats (ELISA), measure of PPAR gamma engagement", "assay_type": "in vivo, Sprague Dawley rats", "details": "54 mg/Kg/day for 7 days, plasma 1 h after last dose, vs vehicle", "experimental": "Evaluation of effect of MIN-102 on adiponectin was performed in Sprague Dawley wild type rats as a measure of PPAR gamma engagement. The rats were treated for 7 days with increasing doses of MIN-102 at 54 mg/Kg/day. Plasma were obtained at 1 h after the last MIN-102 administration. Adiponectin levels were measured by ELISA. Results were represented as mean+standard error of the mean of n=8. Data were analyzed by Kruskal-Wallis followed by the Dunn post-hoc test versus the vehicle group (**** p<0.0001)."}, "[3]": {"experiment": "Minimal effective exposure in mice (dose calculation)", "assay_type": "in vivo", "details": "said to correspond to 50 mg/kg", "experimental": "It can be assumed that dose-exposure is linear. The minimal effective exposure of 5-[[4-[2-[5-(1-hydroxyethyl)pyridin-2-yl]ethoxy]phenyl]methyl]-1,3-thiazolidine-2,4-dione hydrochloride is 130 μg·h/mL in mice which corresponds to administration of 50 mg/kg of 5-[[4-[2-[5-(1-hydroxyethyl)pyridin-2-yl]ethoxy]phenyl]methyl]-1,3-thiazolidine-2,4-dione hydrochloride to mice. It follows that the dose to achieve this exposure in mice is […]."}, "MDA MB231 KO cells": {"tested_on": "MDA MB231 KO cells", "experiment": "Seahorse oxygen consumption rate (OCR), MDA MB231 KO cells (MPC2 deleted)", "assay_type": "cell-based", "details": "MPC activity genetically deleted", "experimental": "as §1"}, "[4]": {"tested_on": "MCD diet NASH mouse model", "experiment": "Methionine Choline Deficient (MCD) diet NASH mouse model", "assay_type": "in vivo, C57BL6/J male mice", "details": "62.5 mg/kg BID oral, 7 weeks", "experimental": "The preventive effects of MIN-102 was evaluated in a 7-week Methionine Choline Deficient (MCD) diet NASH mouse model (Verdelho Machado et al.). After the acclimation period, C57BL6/J male mice (n=20) were weighed and randomized into 2 homogenous treatment groups based on body weight (n=10/group), put on a MCD diet, and treated BID orally with vehicle or MIN-102 for 7 weeks. MIN-102 was dosed 62.5 mg/kg BID orally by gavage. After the acclimation period, C57BL6/J male mice (n=20) were weighed and randomized into 2 homogenous treatment groups based on body weight (n=10/group), put on a MCD diet, and treated BID orally with a vehicle or MIN-102 (125 mg/Kg/day) for 7 weeks. Body weight was measured 3 times/week until the end of the experimental phase. At 7 weeks of diet/treatment, mice were weighed and treated at ˜08:00 am in the morning, then bled (maximal volume/EDTA) at ˜1:00 pm. Plasma was then immediately isolated and stored at −80° C. prior to assay plasma ALT and AST. The plasma volume left over was stored at −80° C. for eventual additional analysis. After blood collection, the mice were sacrificed by cervical dislocation under isoflurane anesthesia and exsanguinated with sterile saline. A NAFLD scoring system (NAS) adapted from Kleiner et al. (Hepatology. 41(6):1313-1321 (2005)) using the criteria described in the Table 1 below: Several other histopathological observations described in clinical human cases and originally reported in the NAS scoring system published by Kleiner et al. were not observed in this animal study, such as lipogranuloma, acidophil bodies, megamitochondria, and pigmented macrophages. Therefore, it was elected not to include them in the scoring system described above. An individual mouse NAS total score was calculated for each animal by summing up the score for (1) hepatocellular steatosis, (2) liver inflammation, (3) lobular fibrosis, and (4) hepatocyte ballooning. Histology analysis was performed (oil red O, H&E and Sirius Red staining) for NAFLD scoring system (NAS) for liver steatosis, inflammation, fibrosis and hepatocyte ballooning."}},
  "note": "Where two headings read alike, the source gives them in different places.",
  "data": [
    {"smiles": "CC(O)c1ccc(CCOc2ccc(CC3SC(=O)NC3=O)cc2)nc1.Cl", "note": "(racemic) [MIN-102, 5-[[4-[2-[5-(1-hydroxyethyl)pyridin-2-yl]ethoxy]phenyl]methyl]-1,3-thiazolidine-2,4-dione hydrochloride]", "values": [
      {"measurement": "effect on oxygen consumption", "setting": "[1]", "result": "inhibits oxygen consumption in a MPC dependent manner"},
      {"measurement": "change in clearance with time", "setting": "[2]; 135 mg and 270 mg, human", "result": "no change in clearance with time"},
      {"measurement": "Cmax", "setting": "[2]; 135 mg", "result": 9490, "unit": "ng/mL"},
      {"measurement": "Cmax", "setting": "[2]; 270 mg", "result": 17200, "unit": "ng/mL"},
      {"measurement": "Cmin ss associated with the target AUCss", "setting": "[2]; target AUCss 200 μg·h/mL, line of best fit of day 8 Cmin ss vs AUCss", "result": 5716, "unit": "ng/mL"},
      {"measurement": "plasma adiponectin levels", "setting": "adiponectin", "result": "significantly increased"},
      {"measurement": "minimal effective exposure", "setting": "[3]", "result": 130, "unit": "µg·h/mL"},
      {"measurement": "effect on oxygen consumption", "setting": "MDA MB231 KO cells", "result": "does not inhibit oxygen consumption"},
      {"measurement": "hepatic cholesterol levels", "setting": "[4]", "result": "did not show a change"},
      {"measurement": "liver inflammation", "setting": "[4]", "result": "total disappearance"},
      {"measurement": "body weight loss", "setting": "[4]; day 14 to day 50, vs vehicle", "result": "less severe decline in body weight loss"},
      {"measurement": "oil red o staining %", "setting": "[4]; vs vehicle, p<0.001", "result": "extremely low"},
      {"measurement": "reduction in hepatic triglycerides levels", "setting": "[4]; vs vehicle, p<0.001", "result": 92, "unit": "%"},
      {"measurement": "steatosis score", "setting": "[4]; vs vehicle, p<0.001", "result": "blunted"},
      {"measurement": "reduction of plasma ALT level", "setting": "[4]; vs vehicle, p<0.01", "result": 78, "unit": "%"},
      {"measurement": "reduction of plasma AST level", "setting": "[4]; vs vehicle, p<0.01", "result": 55, "unit": "%"},
      {"measurement": "mean NAS group score", "setting": "[4]; vehicle 3.40±0.3, p<0.001", "result": "0.44±01"}
    ]}
  ]
}
